EC50 and Emax data for 13 compounds are collected here from patent publication US20240208992A1, “MACROCYCLES AS CFTR MODULATORS” (Idorsia Pharmaceuticals Ltd, priority 2021, published 2024).

For the experiment, the target named is human F508del-CFTR (Homo sapiens, UniProt P13569, DEL508-508). Briefly: F508del-CFTR cell surface expression (corrector activity), DiscoveRx ß-galactosidase complementation chemiluminescence assay in recombinant U2OS cell line.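 As to all read-outs here: U2OS cells co-expressing ProLink-tagged F508del-CFTR and a membrane-anchored enzyme acceptor, where more surface CFTR restores β-galactosidase activity measured by chemiluminescence.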 Particulars: U2OS cells, 16h compound incubation; for EC50: EC50, F508del-CFTR cell surface expression, geomean of several measurements; for Emax: U2OS, in relation to the Emax of the corrector lumacaftor (=100%), arithmetic mean.
Chain of human F508del-CFTR (P13569 with tags, fused parts or gaps DEL508-508): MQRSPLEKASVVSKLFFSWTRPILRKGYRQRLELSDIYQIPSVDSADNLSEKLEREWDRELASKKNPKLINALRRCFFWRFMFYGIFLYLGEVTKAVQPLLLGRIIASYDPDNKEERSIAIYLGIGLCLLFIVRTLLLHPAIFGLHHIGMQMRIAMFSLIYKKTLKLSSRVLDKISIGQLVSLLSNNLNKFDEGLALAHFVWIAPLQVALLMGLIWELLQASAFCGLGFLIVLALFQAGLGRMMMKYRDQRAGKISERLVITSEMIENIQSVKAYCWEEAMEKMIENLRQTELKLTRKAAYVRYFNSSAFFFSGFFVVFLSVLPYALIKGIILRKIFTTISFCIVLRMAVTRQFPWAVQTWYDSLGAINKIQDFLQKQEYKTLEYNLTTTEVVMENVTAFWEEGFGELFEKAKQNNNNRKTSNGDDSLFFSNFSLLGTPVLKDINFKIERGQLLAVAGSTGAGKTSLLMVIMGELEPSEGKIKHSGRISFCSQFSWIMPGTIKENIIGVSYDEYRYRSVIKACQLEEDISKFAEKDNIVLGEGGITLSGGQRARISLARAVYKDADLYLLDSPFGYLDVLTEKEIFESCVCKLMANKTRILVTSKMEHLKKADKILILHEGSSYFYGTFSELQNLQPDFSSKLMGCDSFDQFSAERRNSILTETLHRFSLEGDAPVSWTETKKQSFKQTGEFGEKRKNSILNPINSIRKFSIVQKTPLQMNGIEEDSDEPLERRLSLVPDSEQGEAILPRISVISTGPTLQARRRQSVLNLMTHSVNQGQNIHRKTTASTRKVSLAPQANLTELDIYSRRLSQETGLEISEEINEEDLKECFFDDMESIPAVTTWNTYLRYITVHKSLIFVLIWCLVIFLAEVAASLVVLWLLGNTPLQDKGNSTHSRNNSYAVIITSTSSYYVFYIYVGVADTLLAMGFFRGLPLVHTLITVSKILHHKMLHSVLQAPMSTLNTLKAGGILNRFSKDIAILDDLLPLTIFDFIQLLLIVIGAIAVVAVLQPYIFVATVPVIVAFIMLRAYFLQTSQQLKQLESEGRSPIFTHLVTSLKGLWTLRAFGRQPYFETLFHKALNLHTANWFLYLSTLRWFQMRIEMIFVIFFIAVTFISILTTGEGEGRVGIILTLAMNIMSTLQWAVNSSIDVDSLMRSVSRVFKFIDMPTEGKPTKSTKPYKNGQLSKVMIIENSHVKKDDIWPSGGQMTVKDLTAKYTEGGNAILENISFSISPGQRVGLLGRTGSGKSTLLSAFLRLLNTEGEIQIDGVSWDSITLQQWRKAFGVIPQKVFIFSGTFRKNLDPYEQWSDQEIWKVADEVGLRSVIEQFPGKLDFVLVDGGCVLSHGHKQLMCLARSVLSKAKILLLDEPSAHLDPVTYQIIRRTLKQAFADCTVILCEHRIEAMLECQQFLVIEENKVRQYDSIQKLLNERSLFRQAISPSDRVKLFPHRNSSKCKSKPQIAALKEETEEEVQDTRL

`CC(C)C[C@H]1C(=O)N(C)[C@H](Cc2nc(-c3ccc(F)cn3)no2)C(=O)N[C@H](Cc2ccccc2)COc2cnc3ccc(F)cc3c2C(=O)N[C@H](C(=O)NCCn2nc3ccccc3n2)CC(=O)N1C` [Example 840, (3S,7S,10R,13R)-N-(2-(2H-benzo[d][1,2,3]triazol-2-yl)ethyl)-13-benzyl-20-fluoro-10-((3-(5-fluoropyridin-2-yl)-1,2,4-oxadiazol-5-yl)methyl)-7-isobutyl-6,9-dimethyl-1,5,8,11-tetraoxo-1,2,3,4,5,6,7,8,9,10,11,12,13,14-tetradecahydro-[1]oxa[4,7,10,14]tetraazacycloheptadecino[17,16-c]quinoline-3-carboxamide]: the EC50 is 128 nM and the Emax came to 363%.

As for `CC(C)C[C@H]1C(=O)N(C)C2(CC(F)(F)C2)C(=O)N[C@H](Cc2ccccc2)COc2cnc3ccc(F)cc3c2C(=O)N[C@H](C(=O)NCCc2nc(C3CC3)no2)CC(=O)N1C` [Example 841, (3′S,7′S,13′R)-13′-benzyl-N-(2-(3-cyclopropyl-1,2,4-oxadiazol-5-yl)ethyl)-3,3,20′-trifluoro-7′-isobutyl-6′,9′-dimethyl-1′,5′,8′,11′-tetraoxo-2′,3′,4′,5′,6′,7′,8′,9′,11′,12′,13′,14′-dodecahydro-1′H-spiro[cyclobutane-1,10′-[1]oxa[4,7,10,14]tetraazacycloheptadecino[17,16-c]quinoline]-3′-carboxamide], the half-maximal effective concentration (EC50) amounted to 120 nM and the maximal response (Emax) was 271%.

Turning to `CC(C)C[C@H]1C(=O)N(C)[C@H](Cc2nc(-c3ccc(F)cn3)no2)C(=O)N[C@H](Cc2ccccc2)COc2cnc3ccc(F)cc3c2C(=O)N[C@H](C(=O)NC[C@@H](O)c2ccccc2)CC(=O)N1C` [Example 842, (3S,7S,10R,13R)-13-benzyl-20-fluoro-10-((3-(5-fluoropyridin-2-yl)-1,2,4-oxadiazol-5-yl)methyl)-N-((S)-2-hydroxy-2-phenylethyl)-7-isobutyl-6,9-dimethyl-1,5,8,11-tetraoxo-1,2,3,4,5,6,7,8,9,10,11,12,13,14-tetradecahydro-[1]oxa[4,7,10,14]tetraazacycloheptadecino[17,16-c]quinoline-3-carboxamide], the concentration giving a half-maximal response (EC50) amounted to 495 nM and the Emax came out at 305%.

Regarding `COc1ccc(CCNC(=O)[C@@H]2CC(=O)N(C)[C@@H](CC(C)C)C(=O)N(C)[C@H](Cc3nc(-c4ccc(F)cn4)no3)C(=O)N[C@H](Cc3ccccc3)COc3cnc4ccc(F)cc4c3C(=O)N2)cn1` [Example 843, (3S,7S,10R,13R)-13-benzyl-20-fluoro-10-((3-(5-fluoropyridin-2-yl)-1,2,4-oxadiazol-5-yl)methyl)-7-isobutyl-N-(2-(6-methoxypyridin-3-yl)ethyl)-6,9-dimethyl-1,5,8,11-tetraoxo-1,2,3,4,5,6,7,8,9,10,11,12,13,14-tetradecahydro-[1]oxa[4,7,10,14]tetraazacycloheptadecino[17,16-c]quinoline-3-carboxamide], the 50% effective concentration (EC50) came to 114 nM and the Emax is 368%.

On to `CC(C)C[C@H]1C(=O)N(C)[C@H](Cc2nc(-c3ccc(F)cn3)no2)C(=O)N[C@H](Cc2ccccc2)COc2cnc3ccc(F)cc3c2C(=O)N[C@H](C(=O)NCCc2nc3ncccn3n2)CC(=O)N1C` [Example 844, (3S,7S,10R,13R)-N-(2-([1,2,4]triazolo[1,5-a]pyrimidin-2-yl)ethyl)-13-benzyl-20-fluoro-10-((3-(5-fluoropyridin-2-yl)-1,2,4-oxadiazol-5-yl)methyl)-7-isobutyl-6,9-dimethyl-1,5,8,11-tetraoxo-1,2,3,4,5,6,7,8,9,10,11,12,13,14-tetradecahydro-[1]oxa[4,7,10,14]tetraazacycloheptadecino[17,16-c]quinoline-3-carboxamide], for which the concentration giving a half-maximal response (EC50) was determined as 1040 nM and the Emax worked out at 356%.

Consider `COCCCNC(=O)[C@@H]1CC(=O)N(C)[C@@H](CC(C)C)C(=O)N(C)[C@H](Cc2nc(-c3ccc(F)cn3)no2)C(=O)N[C@H](Cc2ccccc2)COc2cnc3ccc(F)cc3c2C(=O)N1` [Example 845, (3S,7S,10R,13R)-13-benzyl-20-fluoro-10-((3-(5-fluoropyridin-2-yl)-1,2,4-oxadiazol-5-yl)methyl)-7-isobutyl-N-(3-methoxypropyl)-6,9-dimethyl-1,5,8,11-tetraoxo-1,2,3,4,5,6,7,8,9,10,11,12,13,14-tetradecahydro-[1]oxa[4,7,10,14]tetraazacycloheptadecino[17,16-c]quinoline-3-carboxamide], for which the EC50 is 453 nM and the Emax is 308%.

As to `CC(C)C[C@H]1C(=O)N(C)[C@H](Cc2nc(-c3ccc(F)cn3)no2)C(=O)N[C@H](Cc2ccccc2)COc2cnc3ccc(F)cc3c2C(=O)N[C@H](C(=O)NCCCOC(F)(F)F)CC(=O)N1C` [Example 846, (3S,7S,10R,13R)-13-benzyl-20-fluoro-10-((3-(5-fluoropyridin-2-yl)-1,2,4-oxadiazol-5-yl)methyl)-7-isobutyl-6,9-dimethyl-1,5,8,11-tetraoxo-N-(3-(trifluoromethoxy)propyl)-1,2,3,4,5,6,7,8,9,10,11,12,13,14-tetradecahydro-[1]oxa[4,7,10,14]tetraazacycloheptadecino[17,16-c]quinoline-3-carboxamide], the EC50 came to 165 nM and the Emax stood at 261%.

As for `COc1ccc(CCNC(=O)[C@@H]2CC(=O)N(C)[C@@H](CC(C)C)C(=O)N(C)[C@H](Cc3nc(-c4ccc(F)cn4)no3)C(=O)N[C@H](Cc3ccccc3)COc3cnc4ccc(F)cc4c3C(=O)N2)nc1` [Example 847, (3S,7S,10R,13R)-13-benzyl-20-fluoro-10-((3-(5-fluoropyridin-2-yl)-1,2,4-oxadiazol-5-yl)methyl)-7-isobutyl-N-(2-(5-methoxypyridin-2-yl)ethyl)-6,9-dimethyl-1,5,8,11-tetraoxo-1,2,3,4,5,6,7,8,9,10,11,12,13,14-tetradecahydro-[1]oxa[4,7,10,14]tetraazacycloheptadecino[17,16-c]quinoline-3-carboxamide], the EC50 came to 186 nM and the maximum response (Emax) was determined as 340%.

For `COc1nc(C)cc2c1C(=O)N[C@H](C(=O)NC[C@@H](O)c1ccccc1)CC(=O)N(C)[C@@H](CC(C)C)C(=O)N(C)[C@H](Cc1nc(C(F)(F)F)no1)C(=O)N[C@H](Cc1ccccc1)CO2` [Example 848, (3R,6R,9S,13S)-3-benzyl-N-((S)-2-hydroxy-2-phenylethyl)-9-isobutyl-16-methoxy-7,10,18-trimethyl-5,8,11,15-tetraoxo-6-((3-(trifluoromethyl)-1,2,4-oxadiazol-5-yl)methyl)-2,3,4,5,6,7,8,9,10,11,12,13,14,15-tetradecahydropyrido[3,4-p][1]oxa[4,7,10,14]tetraazacycloheptadecine-13-carboxamide], the EC50 is 225 nM and the maximal response (Emax) worked out at 364%.

As for `COc1nc(C)cc2c1C(=O)N[C@H](C(=O)NCCc1nc(C3CC3)no1)CC(=O)N(C)[C@@H](CC(C)C)C(=O)N(C)[C@H](Cc1nc(C(F)(F)F)no1)C(=O)N[C@H](Cc1ccccc1)CO2` [Example 849, (3R,6R,9S,13S)-3-benzyl-N-(2-(3-cyclopropyl-1,2,4-oxadiazol-5-yl)ethyl)-9-isobutyl-16-methoxy-7,10,18-trimethyl-5,8,11,15-tetraoxo-6-((3-(trifluoromethyl)-1,2,4-oxadiazol-5-yl)methyl)-2,3,4,5,6,7,8,9,10,11,12,13,14,15-tetradecahydropyrido[3,4-p][1]oxa[4,7,10,14]tetraazacycloheptadecine-13-carboxamide], the EC50 worked out at 46 nM and the maximum response (Emax) worked out at 465%.

Take `COc1nccc2c1C(=O)N[C@H](C(=O)NCCCOC(F)F)CC(=O)N(C)[C@@H](CC(C)C)C(=O)N1CCCC[C@@H]1C(=O)N[C@H](Cc1ccccc1)CO2` [Example 850, (7S,11S,17aR,20R)-20-benzyl-N-(3-(difluoromethoxy)propyl)-11-isobutyl-4-methoxy-10-methyl-5,9,12,18-tetraoxo-5,6,7,8,9,10,11,12,15,16,17,17a,18,19,20,21-hexadecahydro-14H-dipyrido[2,1-f:3′,4′-p][1]oxa[4,7,10,14]tetraazacycloheptadecine-7-carboxamide]: the concentration for a half-maximal effect (EC50) was found to be 1150 nM and the Emax stood at 224%.

On to `Cc1noc(CC[C@@H]2C(=O)N[C@H](Cc3ccccc3)COc3cnc4ccc(F)cc4c3C(=O)N[C@H](C(=O)NCCc3noc(C4CC4)n3)CC(=O)N(C)[C@@H](CC(C)C)C(=O)N2C)n1` [Example 851, (3S,7S,10R,13R)-13-benzyl-N-(2-(5-cyclopropyl-1,2,4-oxadiazol-3-yl)ethyl)-20-fluoro-7-isobutyl-6,9-dimethyl-10-(2-(3-methyl-1,2,4-oxadiazol-5-yl)ethyl)-1,5,8,11-tetraoxo-1,2,3,4,5,6,7,8,9,10,11,12,13,14-tetradecahydro-[1]oxa[4,7,10,14]tetraazacycloheptadecino[17,16-c]quinoline-3-carboxamide], for which the half-maximal effective concentration (EC50) is 148 nM and the maximal response (Emax) was determined as 310%.

On to `Cc1cc(CCNC(=O)[C@@H]2CC(=O)N(C)[C@@H](CC(C)C)C(=O)N3CCN(c4ccc(F)cn4)C[C@@H]3C(=O)N[C@H](Cc3ccccc3)COc3cnc4ccccc4c3C(=O)N2)on1` [Example 852, (9S,13S,19aR,22R)-22-benzyl-18-(5-fluoropyridin-2-yl)-13-isobutyl-12-methyl-N-(2-(3-methylisoxazol-5-yl)ethyl)-7,11,14,20-tetraoxo-7,8,9,10,11,12,13,14,17,18,19,19a,20,21,22,23-hexadecahydro-16H-pyrazino[2′,11:6,7][1]oxa[4,7,10,14]tetraazacycloheptadecino[17,16-c]quinoline-9-carboxamide], for which the concentration for a half-maximal effect (EC50) was determined as 163 nM and the Emax came to 249%.

The term EC50 denotes the midpoint of the concentration-response curve. In general, Emax refers to the greatest response seen or fitted, relative to the assay's reference.
